From paper PMC4591261, “Design, Synthesis and Evaluation of 2,5-Diketopiperazines as Inhibitors of the MDM2-p53 Interaction” (PLoS ONE, 2015)
Several values for one entry are separate records, joined by “and”; a condition that tells them apart may be missing. Equal entries are not always repeated.

What was measured:
[1] = target: GST-MDM2 (1 – 188) (Homo sapiens, UniProt Q00987); test: Fluorescence polarisation (FP) assay, displacement of Texas Red labeled wild-type p53 peptide from MDM2; format: binding; details: for activity in the FP-assay (in words): tested concentrations up to 100 μM; for IC50: 1 μM GST-MDM2 (1-188), 15 nM Texas Red labeled wild-type p53 peptide, 1 h at r.t., 95% CI
Experimental: To evaluate the 2,5-DKPs as potential MDM2-p53 inhibitors, the same FP-assay was used as for the type III inhibitors.
The FP assay was performed in black 384-well microtiter plates at a final volume of 20 μL per well. […] Two to seven independent experiments of normalized data were combined into a data set, and then fit using a non-linear regression in GraphPad Prism with the formula log(inhibitor) vs. response – Variable slope (four parameters). Additionally the residuals of the curve fit were plotted to determine the fit of the theoretical curve. IC50 and 95% confidence intervals (CI) were determined from these graphs.

[2] = target: T1, MDM2 (Homo sapiens, UniProt Q00987); test: WaterLOGSY NMR binding experiment; details: compound 200 µM, MDM2 protein 5 µM, 298 K
Experimental: All NMR experiments were performed at 298 K (25 °C) using a Bruker Avance 600 MHz spectrometer equipped with TCI cryogenic gradient probe. Compounds (20 mM stock solution in DMSO-D6) were added to buffer (25mM HEPES, pH7.2, 150 mM NaCl, 2mM TCEP) or buffer containing MDM2 protein (5 µM) to give final compound concentration of 200 µM. One-dimensional (1D) ^1H- and WaterLOGSY (water-ligand observed via gradient spectroscopy)^8 NMR spectra were recorded for compounds, protein, and compounds plus protein, respectively. NMR spectra were processed using Bruker Topspin software.

[3] = target: T1, MDM2; test: Surface plasmon resonance (SPR) binding to biotinylated MDM2; details: 1:1 interaction model, 20 °C; for Rmax (RU): SPR
Experimental: To confirm binding to the target, surface plasmon resonance (SPR) was used to study interactions of 52RR and 52RS with MDM2 [41, 42].
MDM2 was minimally biotinylated by reaction with EZ-Link Sulfo-NHS-LC-LC-Biotin (Thermo Scientific). The biotin reagent was added to the protein at a 0.5:1 molar ratio, and the reaction was incubated on ice for 3-4 hours. Unconjugated biotin was removed by processing the samples through two Zeba Spin Desalting Columns (Thermo Scientific) that had been equilibrated with storage buffer (20 mM Bis-Tris pH 6.5, 200 mM NaCl, 20 mM dithiothreitol, 20% glycerol). Bovine serum albumin (BSA) was added to the reaction at a final concentration of 0.1 mg/mL immediately prior to processing through the spin columns to improve recovery.^2 The biotinylated protein was aliquotted, flash-frozen and stored at -80° C for use in subsequent binding experiments.
SPR experiments were conducted at 20 °C using a SensiQ Pioneer optical biosensor (SensiQ Technologies). Neutravidin (Thermo Scientific) was covalently immobilized on a polysaccharide hydrogel-coated gold surface (COOH5 chip; SensiQ Technologies) using routine amine coupling chemistry in immobilization buffer (10 mM HEPES pH 7.4, 150 mM NaCl, 0.005% Tween20). Carboxyl groups on the hydrogel were activated with N-ethyl-N´-(3-dimethylaminopropyl) carbodiimide (EDC) and N-hydroxysuccinimide (NHS), and neutravidin was injected in 10 mM sodium acetate pH 5.0 until immobilization levels of ~3000-3400 RU were achieved. Remaining active sites were blocked by reaction with ethanolamine. The instrument was primed with binding buffer (20 mM Tris pH 8.0, 100 mM NaCl, 5 mM dithiothreitol, 0.005% Tween20, 5% glycerol, 5% DMSO), and biotinylated MDM2 was injected until ~1070 RU of protein was captured. Unoccupied biotin-binding sites of neutravidin on both the reference and protein surfaces were blocked with amine-PEG2-biotin (Thermo Scientific) to minimize potential non-specific binding by the compounds.^3
The data were processed, double-referenced, solvent corrected and analyzed^4 using the software package Qdat (version 2.5.5.12 , BioLogic Software). The equilibrium dissociation constants (KD) were determined by fitting the data to a 1:1 (Langmuir) interaction model.

Chain of GST-MDM2 (1 – 188) (Q00987 1-188): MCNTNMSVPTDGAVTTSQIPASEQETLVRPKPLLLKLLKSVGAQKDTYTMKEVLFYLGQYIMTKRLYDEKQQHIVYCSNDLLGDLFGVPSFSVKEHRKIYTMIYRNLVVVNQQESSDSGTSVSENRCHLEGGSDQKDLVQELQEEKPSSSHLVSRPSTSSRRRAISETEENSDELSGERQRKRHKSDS
T1 sequence (Q00987 whole entry): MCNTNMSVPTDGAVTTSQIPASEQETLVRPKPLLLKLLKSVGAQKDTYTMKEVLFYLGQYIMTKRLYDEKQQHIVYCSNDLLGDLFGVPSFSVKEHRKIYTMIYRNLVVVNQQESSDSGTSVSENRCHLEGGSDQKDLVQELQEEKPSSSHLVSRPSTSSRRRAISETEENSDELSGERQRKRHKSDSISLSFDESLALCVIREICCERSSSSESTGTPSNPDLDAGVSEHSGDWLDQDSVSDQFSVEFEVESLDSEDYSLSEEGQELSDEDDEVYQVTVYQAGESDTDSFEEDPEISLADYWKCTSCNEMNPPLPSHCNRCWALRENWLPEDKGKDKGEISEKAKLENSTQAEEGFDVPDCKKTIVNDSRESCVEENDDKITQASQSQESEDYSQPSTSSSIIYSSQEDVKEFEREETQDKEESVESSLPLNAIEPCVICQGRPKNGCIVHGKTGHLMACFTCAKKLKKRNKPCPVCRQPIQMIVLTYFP

SMILES | activity in the FP-assay (in words) [1] | binding to MDM2 by WaterLOGSY (in words) [2] | IC50 [1] | Rmax (RU) [3] | ka (M^-1s^-1) ([3]; SPR kinetic analysis) | kd (s^-1) ([3]; SPR kinetic analysis)
CC(C)(C)OC(=O)CN1C(=O)[C@@H](c2ccc(Cl)cc2)N(c2ccc(Cl)cc2)C(=O)[C@H]1Cc1ccccc1 [44RR, (3R,6R)-3-Benzyl-1,6-(di-4-chlorophenyl)-4-(tert-butoxy-carbonyl-methyl)-piperazine-2,5-dione] | inactive | – | – | – | – | –
CC(C)(C)OC(=O)CN1C(=O)[C@H](c2ccc(Cl)cc2)N(c2ccc(Cl)cc2)C(=O)[C@H]1Cc1ccccc1 [44RS, (3R,6S)-3-Benzyl-1,6-(di-4-chlorophenyl)-4-(tert-butoxy-carbonyl-methyl)-piperazine-2,5-dione] | inactive | – | – | – | – | –
O=C(O)CN1C(=O)[C@@H](c2ccc(Cl)cc2)N(c2ccc(Cl)cc2)C(=O)[C@H]1Cc1ccccc1 [52RR, (3R,6R)-3-Benzyl-1,6-(di-4-chlorophenyl)-4-(carboxy-methyl)-piperazine-2,5-dione] | – | confirmed binding | 31.4 µM and 31 µM | 16.6 (± 0.2) RU | – | –
COc1ccc(C2=N[C@@H](c3ccc(Cl)cc3)[C@@H](c3ccc(Cl)cc3)N2C(=O)N2CCNC(=O)C2)c(OC(C)C)c1 [Nutlin-3a] | – | – | – | 28.4 (± 0.1) RU | 9.10 (± 0.01) x 10^5 M^-1s^-1 | 2.80 (± 0.01) x 10^-2 s^-1
O=C(O)CN1C(=O)[C@H](c2ccc(Cl)cc2)N(c2ccc(Cl)cc2)C(=O)[C@H]1Cc1ccccc1 [52RS, (3R,6S)-3-Benzyl-1,6-(di-4-chlorophenyl)-4-(carboxy-methyl)-piperazine-2,5-dione] | – | confirmed binding | 28 µM | 16.8 (± 0.2) RU | – | –
